# Data from US4693992A, “Bacitracin-metal-polyether antibiotic complexes” (International Minerals & Chemical Corp., priority 1985, dated 1987).
# Columns and labels:
# [1] = Weight gain and feed utilization efficiency in chicks, 11 days (Example 13); format: in vivo, chicken; set-up: key to Average Weight: average weight in grams; conditions: for Average Gain / Gain/Feed Ratio / Average Weight / Gain/Feed / Average Gain Index / Gain/Feed Ratio Index: .00275% in rye basal diet; for Average Gain / Gain/Feed Ratio: 11 days; for Average Gain Index / Gain/Feed Ratio Index: unmedicated = 100
# Description: (§1) This example describes experimetnal testing of complexes of the present invention as feed additives for improving weight gain or feed utilization efficiency in birds. Test animals were male meat-type chickens (Hubbard strain). Fluorescent room lights were on a 16 hours light/8 hours dark schedule. The chicks were allotted to the pens on the basis of weight classes, and chicks in the even numbered pens were wing banded. Group weights were obtained at the start and individual weights at the termination of the experiment. Chicks weighing between 55 and 65 grams were selected for the test. The test compounds were blended with a basal feed ration (shown in Table 2) at the indicated concentration. Birds fed […] and feed supplemented with zinc bacitracin (Baciferm® 50, International Minerals and Chemical Corp.) were used as controls. The test was continued for 11 days, after which individual weights, pen weight and feed consumption were recorded and analyzed.
# [2] = Weight gain and feed utilization in chicks, 12 days (Example 14); format: in vivo, chicken; conditions: .0066% in feed; for Gain/Feed Data / Gains/gram Data: 12 days; for Gain/Feed Index Relative to #1 / Gains Index Relative to #1: #1 = unmedicated; for Gain/Feed Index Relative to #2 / Gains Index Relative to #2: #2 = zinc bacitracin
# Description: as §1
# All of the bacitracin-metal-polyether antibiotic complexes tested produced statistically significant increases in gains compared to the unmedicated basal ration.
# The test involving test compounds 1 and 3-14 consisted of 5 replicates of 7 chicks and those involving test compound 2 consisted of 6 replicates of 7 chicks. The tests were continued for 12 days, after which individual weight gains and feed conusumption were recorded and analyzed.
# buffered rumen fluid = assay: Rumen screen, in vitro ruminal volatile fatty acid ratio (Examples 15, 16); format: cell-based, steer; conditions: 10 ppm, Neg. Control 1.39
# Description: Rumen fluid was removed from a fistulated steer and strained through a cheesecloth. An equal amount of pH 7 buffer was added to strained rumen fluid. After layering occurred, the lower layer was saved and again diluted with equal amount of buffer. Ten ml. portions of buffered rumen fluid were added to fermentation vessels containing 500 mg. fresh finely ground cattle ration, 1 mg cellubiose and a test compound listed in Table 1 below at the indicated concentration. The fermentation vesels were outfitted with one-way gas valves, placed in an incubator and shaken for 24 hours at 38° C. Fermentation was stopped by addition of 1 ml mercuric chloride. The liquid was decanted and analyzed for volatile fatty acids by gas chromatography. Test results are summarized in Table 1, wherein Bac=bacitracin.
# The procedures of Example 15 were repeated in all essential details with the test compounds and concentrations listed in Table 1 below, as are the results of the test.
# Eimeria tenella [3] = assay: Anticoccidial activity in chickens inoculated with Eimeria tenella oocysts (Example 11); format: in vivo; conditions: for Incidence of Bloody Droppings / Morbidity: 4th-6th day; for Morbidity: birds affected/birds in group; for Mortality: 4th-7th day, birds dead/birds in group; for F/G Day 0-3 / F/G Day 4-10: feed per gain
# Description: (§2) This example describes experimental testing of complexes of this invention for anticoccidial activity. Anticoccidial activities of test compounds were determined by administering the compounds (in feed) to chickens inoculated with active oocysts of Eimeria tenella. The test compounds, which are listed in Table 1 below, included four bacitracin-metal-polyether antibiotic complexes prepared according to the procedures described above. In addition, sodium lysocellin, regular bacitracin, sodium monensin, sodium lasolocid, and unmedicated inoculated and noninoculated controls were included for comparative purposes.
# (§3) The test animals were Hubbard White Mountain male chicken (broiler strain) that were 5 days old at the beginning of the test. Each experimental compound was administered in a chick starter diet (Table 2) at a level of 80 g/ton and 120 g/ton. At 7 days of age, chicks were individually weighed, banded, and started on their respective treatments. Each treatment was replicated three times with five birds per replicate for a total of 15 birds per group. The test period was 10 days.
# Seventy-two hours after the initiation of medication, birds were reweighed and orally inoculated with approximately 100,000 Eimeria tenella oocysts suspended in a 1 cc dose of saline. The following criteria were then evaluated over the next seven days: […]
# a. morbidity (4th-6th day) b. mortality (4th-7th day) c. incidence of bloody droppings (4th-6th day)
# Eimeria tenella [4] = assay: Anticoccidial activity in chickens inoculated with Eimeria tenella (Example 12); format: in vivo, chicken; conditions: for Cecal Bleeding / Gain/Bird Days 0-3 / Gain/Bird Days 4-10: regrouped part of Table 2
# Description: as §2, §3
# Seventy-two hours after the initiation of medication, birds were reweighed and orally inoculated with approximately 100,000 Eimeria tenella oocysts suspended in a 1 cc dose of saline. The following criteria were then evaluated over the next seven days:
# A satisfactory challenge was obtained with Eimeria tenella.
substance,measurement,setting,value
Bacitracin-Zinc-Lysocellin Complex [Example 6],Average Gain,[1],219 g
same,Gain/Feed Ratio,[1],66.7
same,Average Weight,[1]; Table 4,279.4
same,Gain/Feed,[1]; Table 4,66.7
same,Average Gain Index,[1],106.6
same,Gain/Feed Ratio Index,[1],104.7
same,improvement in feed utilization efficiency vs unmedicated controls,"[1]; statistical comparison, Table 4",significant imporvement
same,Gain/Feed Data,[2],.609
same,Gains/gram Data,[2],213.8 gram
same,Gain/Feed Index Relative to #1,[2],108.2
same,Gains Index Relative to #1,[2],115.5
same,Gain/Feed Index Relative to #2,[2],102.2
same,Gains Index Relative to #2,[2],102.0
same,A/P Ratio,buffered rumen fluid; Example 16,1.14
Bacitracin-Nickel-Lysocellin Complex [Example 4],protection against cecal bleeding,Eimeria tenella [3]; 80 and 120 g/ton,only fair
same,bleeding,"Eimeria tenella [3]; 80 and 120 g/ton, this test",slight bleeding
same,anticoccidial activity (in words),"Eimeria tenella [3]; 80 and 120 g/ton, mild E. tenella challenge",performed well
same,Incidence of Bloody Droppings,Eimeria tenella [3]; 80 g/ton in feed,Slight
same,Morbidity,Eimeria tenella [3]; 80 g/ton in feed,2/15
same,Mortality,Eimeria tenella [3]; 80 g/ton in feed,0/15
same,"Gain, Grams Day 0-3",Eimeria tenella [3]; 80 g/ton in feed,60.8 Grams
same,"Gain, Grams Day 4-10",Eimeria tenella [3]; 80 g/ton in feed,229.1 Grams
same,F/G Day 0-3,Eimeria tenella [3]; 80 g/ton in feed,1.70
same,F/G Day 4-10,Eimeria tenella [3]; 80 g/ton in feed,1.59
same,Incidence of Bloody Droppings,Eimeria tenella [3]; 120 g/ton in feed,Slight
same,Morbidity,Eimeria tenella [3]; 120 g/ton in feed,1/15
same,Mortality,Eimeria tenella [3]; 120 g/ton in feed,1/15
same,"Gain, Grams Day 0-3",Eimeria tenella [3]; 120 g/ton in feed,58.6 Grams
same,"Gain, Grams Day 4-10",Eimeria tenella [3]; 120 g/ton in feed,227.7 Grams
same,F/G Day 0-3,Eimeria tenella [3]; 120 g/ton in feed,1.70
same,F/G Day 4-10,Eimeria tenella [3]; 120 g/ton in feed,1.59
same,bleeding,"Eimeria tenella [3]; 200 g/ton, in C-760 (another test)",no bleeding
same,Cecal Bleeding,Eimeria tenella [4]; 14 g/ton Lasalocid (Approx.),Severe
same,Gain/Bird Days 0-3,Eimeria tenella [4]; 14 g/ton Lasalocid (Approx.),63.3
same,Gain/Bird Days 4-10,Eimeria tenella [4]; 14 g/ton Lasalocid (Approx.),164.1
same,Cecal Bleeding,Eimeria tenella [4]; 36 g/ton Lasalocid (Approx.),Slight-Moderate
same,Gain/Bird Days 0-3,Eimeria tenella [4]; 36 g/ton Lasalocid (Approx.),59.5
same,Gain/Bird Days 4-10,Eimeria tenella [4]; 36 g/ton Lasalocid (Approx.),187.4
same,Incidence of Bloody Droppings,Eimeria tenella [4]; 80 g/ton in feed,Severe
same,Morbidity,Eimeria tenella [4]; 80 g/ton in feed,9/15
same,Mortality,Eimeria tenella [4]; 80 g/ton in feed,0/15
same,F/G Day 0-3,Eimeria tenella [4]; 80 g/ton in feed,1.61
same,Gain/Bird Grams Day 0-3,Eimeria tenella [4]; 80 g/ton in feed,63.3 Grams
same,F/G Day 4-10,Eimeria tenella [4]; 80 g/ton in feed,1.91
same,Gain/Bird Grams Day 4-10,Eimeria tenella [4]; 80 g/ton in feed,164.1 Grams
same,Cecal bleeding associated with E. tenella infections,Eimeria tenella [4]; 80 gram per ton,severe
same,weight gains compared with those of test compound 5 and lasalocid,Eimeria tenella [4]; 80 gram per ton (lasalocid 24 gram per ton),appreciably higher
same,Morbidity,Eimeria tenella [4]; 120 g/ton in feed,5/15
same,Mortality,Eimeria tenella [4]; 120 g/ton in feed,0/15
same,F/G Day 0-3,Eimeria tenella [4]; 120 g/ton in feed,1.69
same,Gain/Bird Grams Day 0-3,Eimeria tenella [4]; 120 g/ton in feed,59.5 Grams
same,F/G Day 4-10,Eimeria tenella [4]; 120 g/ton in feed,1.72
same,Gain/Bird Grams Day 4-10,Eimeria tenella [4]; 120 g/ton in feed,187.4 Grams
same,Average Gain,[1],217 g
same,Gain/Feed Ratio,[1],62.8
same,Average Weight,[1]; Table 4,277.0
same,Gain/Feed,[1]; Table 4,62.8
same,Average Gain Index,[1],105.4
same,Gain/Feed Ratio Index,[1],98.5
same,Gain/Feed Data,[2],.585
same,Gains/gram Data,[2],197.2 gram
same,Gain/Feed Index Relative to #1,[2],103.9
same,Gains Index Relative to #1,[2],106.5
same,Gain/Feed Index Relative to #2,[2],98.2
same,Gains Index Relative to #2,[2],94.1
same,A/P Ratio,"buffered rumen fluid; Example 15, 24 hours at 38° C.",1.10
same,A/P Ratio,buffered rumen fluid; Example 16,.88
